According to paper PMC10846744, “Cathelicidin peptide analogues inhibit EV71 infection through blocking viral entry and uncoating” (PLOS Pathogens, 2024):
Where no end group is shown, it is not given here.

What was measured:
EV71 virus = assay: 1H NMR titration of peptide with EV71 virus; type: binding, enterovirus 71 (EV71); conditions: molar ratio peptide to virus 90:1, 800 MHz, 298k
Procedure: (§1) The NMR titrations were performed on a Bruker 800 MHz (Avance NEO) spectrometer equipped with cryo-probe. The molar ratio of the peptide to the virus was 90:1. The experiments were recorded using zgespg pulse for 128 scans at 298k and the results were analyzed by Topspin.

CVB5 virus = assay: 1H NMR titration of peptide with CVB5 virus; type: binding, coxsackievirus B5; conditions: molar ratio peptide to virus 90:1, 800 MHz, 298k
Procedure: as §1

EV71 virions = assay: Viral particle ultracentrifugation (uncoating with SCARB2 at pH 5.5); design: species or system enterovirus 71 (EV71); conditions: EV71 MOI = 10, 1.5 μg SCARB2, pH 5.5, 37°C 2 hrs, iodoxanol gradient ultracentrifugation, immunoblotting
Procedure: Fig 6 LL-18 stabilizes the viral particles by inhibiting uncoating. (A) EV71 virus (MOI = 10) was pre-incubated with PBS, indicated amount of LL-18 or NaCl for 1 hr and then mixed with SYBR green dyes II before they were heated to indicated temperatures. The fluorescent signals were measured and plotted against temperature. PBS was used as a negative control. (B) EV71 virus (MOI = 10) was pre-incubated with PBS, LL-18, or 12s for 2 hrs. Half of the samples were then treated with 1.5 μg SCARB2 protein and incubated at 37°C for 2 hrs at pH 5.5. Samples were then subjected to ultracentrifugation as detailed in materials and methods. The numbers above represent the fractions collected from top to bottom.
EV71 viruses were pre-incubated with either PBS, 12s, or LL-18 for 1 hr. Then half the samples were treated with 1.5 μg purified SCARB2 protein (Sino Biological, China) with pH adjusted to 5.5. The samples were incubated at 37°C for 2 hrs to simulate the virus uncoating environment. Viral particles were then loaded onto iodoxanol gradients (0% 500 μL, 21% 1 mL, 27% 1 mL, 33% 1 mL, 39% 1 mL) and ultra-centrifuged at 4°C, 45000 rpm for 1.5 hrs. 7 fractions were collected from the top, and samples were precipitated with Trichloroacetic acid (TCA) before being analyzed with immunoblotting.

[1] = test system: mouse-adapted EV71 (mEV71); assay: mEV71 infection model in 6-day-old ICR mice; type: in vivo
Procedure: Fig 7 LL-18 inhibits mEV71 infection in vivo. (A) mEV71 was pre-treated with PBS or LL-18 and used to infect 6-day old ICR mice. The survival rate of mice infected with the mEV71 virus with or without LL-18 was recorded. (B) Mice infected with the mEV71 virus with or without LL-18 pre-treatment were sacrificed 1 day post infection (d.p.i.) and viral titers from brain and muscle tissues were determined. ***, P<0.001. (C) H&E staining of muscle tissue from mice infected with the mEV71 virus with or without LL-18. Blue arrows indicate infiltrated neutrophils. Bar, 20μm.
To prepare the mouse-adapted EV71 strain, the parental EV71 virus was intraperitoneally (i.p.) inoculated into 3-day-old ICR mice. Virus was then isolated from the brain tissue and inoculated into RD cells to amplify virus. […] 1×10^9 PFU/ml mEV71 was then incubated with an equal volume of PBS or LL-18 (20 mg/kg) for one hour, and used to infect 6-day-old ICR newborn mice intraperitoneally. Mice were monitored daily to record survival rate. Meanwhile, brain and muscle tissues were collected 1-day post infection for viral titration or H&E staining.
Supplementary file ppat.1011967.s005.tif: S5 Fig LL-18 inhibits mEV71 infection in vivo. (A) 6-day-old ICR mice were infected with parental EV71 or mouse-adapted virus (mEV71) and the mice survival rate was determined. (B) RD cells infected with mEV71 pre-incubated with PBS or LL-18 for 1 hr were determined for virus titer 24 h.p.i. ***, P<0.001. (C) ICR mice infected with mEV71 or mEV71 pre-incubated with the indicated amount of LL-18 were sacrificed at 1 d.p.i. and viral titers from muscle were determined. ns, not significant; ***, P<0.001. (TIF) Click here for additional data file.

EV71 P30 virus = assay: Resistance induction assay (30 passages); type: cell-based, enterovirus 71 (EV71); conditions: 20 passages at 0.9 μM then 10 at 1.5 μM LL-18; 1.5 μM LL-18 pre-incubation 1 h, RD cell viability 24 h.p.i
Procedure: (A) Diagram of resistance induction assay. (B) RD cells infected with parental EV71 or P30 with or without 1.5 μM LL-18 pre-incubation were tested for cell viability 24 h.p.i. ns, not significant; ***, P<0.001.
Resistance induction assay was conducted as previously reported. Briefly, virus was first successively passaged in RD cells for 20 generations in the presence of a lower concentration of LL-18 (0.9 μM). The progeny virus was then passaged for another 10 generations with 1.5 μM LL-18, and the progeny virus was designated as P30. The parental EV71 and P30 with the same titer were pre-incubated with 1.5 μM LL-18 for 1 h and then tested for cell viability 24 h.p.i.

IFN-β = IFN-β production in RD cells (q-RT-PCR); type: cell-based, human
Procedure: For real-time PCR, cells were treated as described, and cellular total RNA was isolated using the Cell Total RNA Isolation Kit (ForeGene, China) according to the manufacturer’s protocol. The cDNA was synthesized using the ProtoScript II First Strand cDNA Synthesis Kit (New England Biolabs). cDNA was then determined with 2×RealStar Green Fast Mixture (GenStar, China) with the following primers: […]
Supplementary file ppat.1011967.s007.tif: S7 Fig Induction of IFN-β production by peptides. (A) RD cells treated with 1.5 μM LL-18 or LL-37 for indicated time and IFN-β production was detected by q-RT-PCR. (B) RD cells treated with EV71 viruses pre-treated with PBS or LL-18 for indicated time and IFN-β production was detected by q-RT-PCR. ns, not significant; **, P<0.01; ***, P<0.001. (TIF) Click here for additional data file.

In the case of FRKSKEKIGKLFKRIVQRILDFLRNLV [LL-18], the “interaction of peptide with EV71 virus by 1H 1D NMR (amide region)” value (EV71 virus) is reported as “chemical shift perturbation with multiple new peaks was observed”, the “interaction of peptide with CVB5 virus by 1H 1D NMR (amide region)” value (CVB5 virus) is reported as “little effect on the spectra of peptides” and the “inhibition of uncoating (VP1 distribution in density gradient fractions)” value (EV71 virions) is reported as “remained in the higher density fractions”. The “survival rate of infected suckling mice” value ([1]; 6-day-old ICR mice, mEV71 pre-incubated 1 hour with LL-18 (20mg/kg), intraperitoneal) was “could increase the sucking mouse survival rate”, the “viral loads of brain and muscle” value ([1]; 6-day-old ICR mice, mEV71 pre-incubated with LL-18 (20mg/kg), i.p., 1 d.p.i) was “significantly decreased the viral loads in both brain and muscle” and the “inflammatory cell infiltration in muscle (H&E histology)” value ([1]; 6-day-old ICR mice, mEV71 with LL-18 (20mg/kg)) was “improved with the administration of LL-18”. For the same sequence, the “viral load in muscle, dose finding” value ([1]; ICR mice, mEV71 pre-incubated with 20 mg/kg LL-18, 1 d.p.i. (S5C Fig)) was “could significantly reduce the viral load”, the “susceptibility of P30 virus to LL-18” value (EV71 P30 virus) was “still as susceptible to LL-18 as the parental virus” and the “interferon (IFN-β) production after pre-incubation of peptide with viruses” value (IFN-β; RD cells treated with EV71 pre-treated with LL-18, q-RT-PCR (S7B Fig)) was “reduced its ability to induce interferon production”. The “induction of interferon (IFN-β) production by peptide alone” value (IFN-β; RD cells, 1.5 μM peptide, q-RT-PCR (S7A Fig)) was “could induce interferon production”.
